Experimental data taken from PubChem BioAssay (NCI).
Values joined by “and” are separate entries in the source; they are usually repeats but may differ in a detail not shown here. Equal entries are not always repeated.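 96-well plates; 48 h exposure; 5 concentrations. Endpoints by linear interpolation between flanking doses. Not reached: highest tested concentration assigned. GI50 is the concentration that inhibits growth by half. At the TGI there is no net growth.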

Assays:
Assay in all cases: DTP human tumour cell line panel, 48 h
HL-60(TB) leukemia = tested on: HL-60(TB) leukemia
LOX IMVI melanoma = tested on: LOX IMVI melanoma
MCF7 breast = tested on: MCF7 breast
NCI-H460 lung = tested on: NCI-H460 lung
NCI/ADR-RES ovarian = tested on: NCI/ADR-RES ovarian
SK-MEL-5 melanoma = tested on: SK-MEL-5 melanoma
SK-OV-3 ovarian = tested on: SK-OV-3 ovarian
U251 CNS = tested on: U251 CNS
UACC-62 melanoma = tested on: UACC-62 melanoma
UO-31 renal = tested on: UO-31 renal

SMILES	GI50 (HL-60(TB) leukemia)	TGI (HL-60(TB) leukemia)	GI50 (LOX IMVI melanoma)	TGI (LOX IMVI melanoma)	GI50 (MCF7 breast)	TGI (MCF7 breast)	GI50 (NCI-H460 lung)	TGI (NCI-H460 lung)	GI50 (NCI/ADR-RES ovarian)	TGI (NCI/ADR-RES ovarian)	GI50 (SK-MEL-5 melanoma)	TGI (SK-MEL-5 melanoma)	GI50 (SK-OV-3 ovarian)	TGI (SK-OV-3 ovarian)	GI50 (U251 CNS)	TGI (U251 CNS)	GI50 (UACC-62 melanoma)	TGI (UACC-62 melanoma)	GI50 (UO-31 renal)	TGI (UO-31 renal)
CCOC(=O)Cc1csc(NC(=O)COC(=O)c2ccc(OC)cc2)n1	0.407 µM	2.63 µM	11.1 µM	> 37.5 µM	64.2 µM	> 100 µM	33.8 µM	> 100 µM	> 100 µM	> 100 µM	> 100 µM	> 100 µM	> 75.4 µM	> 100 µM	43.3 µM	> 100 µM	> 100 µM	> 100 µM	5.76 µM	11.1 µM
O=C(Nc1cccc(C(F)(F)F)c1)c1cc(Br)cc(Br)c1O		5 µM		4.95 µM		> 10 µM		> 10 µM		6.78 µM		3.58 µM		9.38 µM		> 10 µM		> 10 µM		8.51 µM
COC(=O)C(Cc1nc2ccccc2[nH]c1=O)C(=O)C(=O)Nc1cc(C(F)(F)F)ccc1Cl (stereo unspecified)		54.2 µM		31.5 µM		27.4 µM		39.9 µM		53.3 µM		56 µM		> 100 µM		66.6 µM		53.4 µM		28.9 µM
CCCCCc1c(C)[nH]c(/C=C2\N=C(c3ccc[nH]3)C=C2OCc2ccccc2)c1C	0.0623 µM	0.425 µM	0.0195 µM and 0.0117 µM	0.0458 µM and 0.0377 µM	0.0395 µM and 0.0361 µM	0.859 µM and 1.06 µM	0.0423 µM and 0.031 µM	1.42 µM and 1.16 µM	0.255 µM and 0.0776 µM	1.46 µM and 0.761 µM	0.0358 µM and 0.0186 µM	0.138 µM and 0.0471 µM	0.326 µM and 0.0978 µM	2.48 µM and 0.983 µM	0.0289 µM and 0.0239 µM	0.195 µM and 0.122 µM	0.023 µM	0.0538 µM and 0.0506 µM	0.103 µM and 0.0318 µM	0.282 µM and 0.128 µM
COc1ccc(-c2c(N)n[nH]c2-c2cc(OC)c(OC)c(OC)c2)cc1	0.0474 µM	0.516 µM	0.528 µM	> 100 µM	0.0732 µM	> 100 µM	0.0993 µM	17.2 µM	0.2 µM	2.22 µM	0.113 µM	10 µM	0.211 µM	52.4 µM	0.276 µM	> 100 µM	0.14 µM	> 100 µM	0.926 µM	> 68.7 µM
O=C(O)C(=O)CBr	12.1 µM and 18.9 µM	46.1 µM and 45.1 µM	> 44.4 µM and 17.3 µM	> 63.1 µM and 31.8 µM	> 61.4 µM and 29.3 µM	> 100 µM and 94.7 µM	> 100 µM and 21.2 µM	> 100 µM and 41.9 µM	> 54.6 µM and 20.2 µM	> 94.4 µM and 44 µM	> 100 µM and 65.8 µM	> 100 µM	> 100 µM and 19.7 µM	> 100 µM and 36 µM	> 100 µM and 21.6 µM	> 100 µM and 42.9 µM	> 44.7 µM and 19 µM	> 62.5 µM and 35.3 µM	> 38 µM and 17.3 µM	> 54.7 µM and 31.8 µM
CN(C)CCNc1nc2ccccc2c2c(=O)c3ccccc3sc12	1.82 µM	4.21 µM	1.37 µM	2.8 µM	1.37 µM	3.05 µM	1.62 µM	3.7 µM	1.96 µM	6.43 µM	1.58 µM	3 µM	4.68 µM	19 µM	2.25 µM	6.01 µM	1.73 µM	3.68 µM	1.08 µM	3.37 µM
COc1cc(C2c3cc4c(cc3[C@@H](Nc3ccc(N)cc3)C3COC(=O)[C@H]23)OCO4)cc(OC)c1O (stereo partly specified)	0.287 µM and 0.422 µM	0.862 µM and 5.63 µM		6.48 µM		12.3 µM	0.139 µM	2.36 µM		44.5 µM	0.701 µM	7.09 µM	0.805 µM	17.3 µM		4.2 µM	0.711 µM	11.3 µM	0.727 µM	4.79 µM
